Results taken from patent publication US7662644B2, “Labeled peptides, proteins and antibodies and processes and intermediates useful for their preparation” (priority 2000, dated 2010).

Assays:
[1] = Spectral data for selected merocyanine dyes (absorbance and fluorescence spectra); format: physicochemical; set-up: Absorption Maximum / Emission Maximum: unit not given here; settings: in n-butanol
Method: Absorbance spectra were recorded on Hewlett-Packard HP8452 diode array spectrophotometer and fluorescence spectra were recorded on SPEX Fluorolog 2 spectrometer.

Rac = target: T1, Rac (Homo sapiens, UniProt P63000); settings: literature value; read-out: previously reported GTPγS dissociation constant; cited from earlier work
T1 construct: ECFP or EYFP (fusion partner)

GFP-Rac1 = target: T2, GFP-Rac1 (Homo sapiens, UniProt P63000); assay: In vitro FRET titration of Alexa-PBD with GFP-Rac1; format: binding; settings: at saturating Alexa-PBD; read-out: apparent GTPγS dissociation constant
T2 construct: 6His; made in house; host or cells: E. coli BL21DE3 (stated for PBD; 'similar procedure' for GFP-Rac1)
Method: FRET between Alexa-PBD and GFP-Rac1 was efficient and dependent on GTP-Rac 1 binding. […] Purified GFP-Rac1 (200 nM) was bound to varying concentrations of […] or GDP at low magnesium by 30 min incubation at 30° C. as described previously (U. G. Knaus et al., J. Biol. Chem. 267, 23575-23582 (1992)), using the following nucleotide equilibration buffer: 50 mM Tris HCl (pH 7.6), 50 mM NaCl, 5 mM MgCl2, 10 mM EDTA, and 1 mM DTT. […] Spectra were corrected for dilution upon Alexa-PBD addition. Alexa-PBD concentrations were either varied as shown, or maintained at 1 micromolar when saturating Alexa-PBD was required. The spectra shown were corrected for direct excitation of the Alexa fluorophore by acquiring spectra of Alexa-PBD alone at equivalent concentrations, and subtracting these from spectra shown in FIG. 7. Kd were determined by fitting to the equation: Y=A*X/(Kd+X). In the FIG. 7, panel A inset, only points actually used in the curve fitting are shown. Higher, saturating concentrations of AlexaPBD were not used because errors from subtraction of direct Alexa excitation became larger. […] The apparent GTPγS dissociation constant was determined at saturating Alexa-PBD by fitting the experimental data to the Michaelis equation (FIG. 7b). […]

cdc42 = target: T3, cdc42 (Homo sapiens, UniProt P60953); assay: Fluorescence of mero-CBD on binding cdc42; settings: for increase of fluorescence on binding activated cdc42 (cdc42-GTPγS): saturating cdc42-GTPγS
T3 construct: 6His; made in house; host or cells: E. coli BL21DE3 (stated for CBD; 'analogous procedures' for cdc42)
Method: (§1) Analyses of the solvatochromic activation indicator—A solution of mero-CBD (300 nM) in assay buffer was mixed 1:1 (v/v) with solutions of cdc42 (concentration as indicated), pre-equilibrated with 10 mM GDP or GTPγS as described in Knaus, U. G., Heyworth, P. G., Kinsella, B. T., Cumutte, J. T., and Bokoch, G. M. (1992) J. Biol. Chem. 267, 23575-23582. Emission wavelength of 630 nm and excitation wavelength of 600 nm were used to acquire excitation and emission spectra, respectively. For nucleotide dependence, cdc42 (500 nM) was pre-incubated with varying concentrations of GTPγS (1 to 500 nM). Rac1 and RhoA GTPases were pre-equilibrated with GTPγS in the same manner.
(§2) Fluorescence increase as a measure of CBD-cdc42 interaction—The functionality and specificity of mero-CBD was characterized by measuring fluorescence in the presence of saturating amounts of cdc42-GDP or cdc42-GTPγS. […] Negligible increase (<5%) was also observed in the presence of activated Rac1. No effect on the mero-CBD fluorescence was observed when RhoA-GTPγS was present. Furthermore, even in the presence of excess of activated Rac1 and RhoA, GDP- and GTPγS-bound forms of cdc42 were easily distinguished by CBD-A4C fluorescence (data not shown).

RhoA = target: T4, RhoA (Homo sapiens, UniProt P61586); assay: Fluorescence of mero-CBD in presence of RhoA-GTPγS; format: binding; settings: RhoA-GTPγS present
T4 construct: 6His; made in house; host or cells: E. coli BL21DE3 (by 'analogous procedures')
Method: as §1, §2

[2] = Storage of labeled CBD aliquots; format: physicochemical; settings: aliquots 15 to 50 μM stored at −80° C. for 6 months
Method: Conjugation of CBD with fluorescent dyes—Dialyzed CBD samples (100-150 μM) were gently inverted with 6 to 7-fold molar excess of the reactive dye at 25° C. for 3 to 4 hours. The reaction was stopped by addition of 10 mM dithiothreitol (DTT), and the mixture was incubated for 15 min. Unreacted dye was separated from the labeled protein using […] (Pharmacia) gel filtration column equilibrated and developed with 25 mM Na2HPO4 (pH 7.5). Purity of the eluting fractions was analyzed by running an aliquot on an SDS gel and visualizing the fluorescence. Only the fractions containing minimal amounts of free dye were used in the subsequent experiments. Dye-to-protein ratio was determined by measuring CBD concentration (ε^280=8,250 M^−1), and A4C concentration at 617 nm (ε=70,000 M^−1 in dimethylsulfoxide) or Alexa546 at 554 nm (ε=104,000 M^−1 in 50 mM potassium phosphate, pH 7.0). Concentrations of CBD were independently confirmed by Coomassie Plus assay (Pierce) calibrated with bovine serum albumin as a standard. Dye-to-protein ratios thus obtained varied between 0.8 and 1.2, 1.7 and 2.1 for the single-dye and dual-dye conjugates, respectively. Aliquots of the labeled CBD (15 to 50 μM) were stored at −80° C. […] In this example, CBD-conjugates were made with the dye shown in FIG. 11, and are referred to as mero-CBD (for merocyanines dye conjugated to CBD).

Rac1 = target: T5, Rac1 (Homo sapiens, UniProt P63000); assay: Fluorescence of mero-CBD in presence of activated Rac1; format: binding; settings: Rac1 pre-equilibrated with GTPγS
T5 construct: 6His; made in house; host or cells: E. coli BL21DE3 (by 'analogous procedures')
Method: as §1, §2

T3 sequence (P60953 whole entry, species assumed): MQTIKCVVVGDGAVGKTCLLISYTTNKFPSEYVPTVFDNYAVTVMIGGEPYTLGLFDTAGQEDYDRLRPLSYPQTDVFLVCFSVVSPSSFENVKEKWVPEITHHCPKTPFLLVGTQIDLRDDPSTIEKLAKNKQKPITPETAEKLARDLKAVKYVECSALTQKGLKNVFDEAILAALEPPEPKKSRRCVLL
T4 sequence (P61586 whole entry, species assumed): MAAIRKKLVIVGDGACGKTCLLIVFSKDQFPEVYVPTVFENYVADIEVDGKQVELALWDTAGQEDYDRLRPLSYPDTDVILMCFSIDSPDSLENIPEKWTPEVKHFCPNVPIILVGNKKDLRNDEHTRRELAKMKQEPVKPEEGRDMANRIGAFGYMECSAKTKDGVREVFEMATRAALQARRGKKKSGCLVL

Row | Molecule | Absorption Maximum [1] | Emission Maximum [1] | Extinction coefficient (*10^−3) [1] | Quantum Yield [1] | further results
1 | CC1(C)/C(=C/C=C/C=C2/C(=O)c3ccccc3S2(=O)=O)N(CCCS(=O)(=O)[O-])c2ccccc21.[Na+] [Compound 3] | 586 | 618 | 120 | 0.17 | –
2 | CC1(C)/C(=C/C=C/C=C2/C(=O)c3ccccc3C2=C(C#N)C#N)N(CCCS(=O)(=O)[O-])c2ccccc21.[Na+] [Compound 4] | 667 | 693 | 80 | 0.10 | –
3 | Nc1nc2c(ncn2[C@@H]2O[C@H](COP(=O)(O)OP(=O)(O)OP(O)(O)=S)[C@@H](O)[C@H]2O)c(=O)[nH]1 [GTPγS] | – | – | – | – | Kd (Rac): 50 nM; Kd (GFP-Rac1): 47 ± 9 nM
4 | mero-CBD: cdc42 binding domain of WASP conjugated to the merocyanine dye shown in FIG. 11 (conjugate, left off: small tags and cut ends) DIQNPDITSSRYRGLPAPGPSPADKKRSGKKKISKADIGAPSGFKHVSHVGWDPQNGFDVNNLDPDLRSLCSRAGISEAQLTDAETSKLIYDFIEDQGGLEAVRQEMRRQEPLPPPPPPSR | – | – | – | – | increase of fluorescence with cdc42-GDP (cdc42; saturating cdc42-GDP): but not cdc42-GDP; increase of fluorescence on binding activated cdc42 (cdc42-GTPγS) (cdc42): Approximately 3.5 fold; increase of fluorescence on binding activated cdc42 (cdc42-GTPγS) (cdc42; listed as CBD biosensor): up to 3.5 fold; effect of RhoA-GTPγS on fluorescence (RhoA): No effect; loss of binding ability on storage [2]: No significant loss of binding ability; increase of fluorescence in the presence of activated Rac1 (Rac1): < 5%
